Here are results for 15 molecules from patent US20220409629A1, “BENZODIAZEPINE DERIVATIVES FOR TREATING A RESPIRATORY SYNCYTIAL VIRUS (RSV) INFECTION” (priority 2019, published 2022).

One data set can be described thus: Cell cytotoxicity CC50. Particulars: human; mean of at least two experiments. In kind it is cell-based.
Data set [1] can be described thus: Liver microsomal stability, human. The data set is classed as in vitro ADME. Particulars: pH 7.4; human liver microsomes, 0.5 mg/mL protein, 1 μM compound, NADPH; >80% remaining at 45 min denoted >140; read-out: Liver Microsomal Stability: t1/2 (min); human. As to the method: (§1) Compounds were subjected to the following assays to investigate liver microsomal stability, permeability and plasma protein binding.
(§2) Pooled liver microsomes were purchased from a reputable commercial supplier and stored at −80° C. prior to use. Microsomes (final protein concentration 0.5 mg/mL), 0.1 M phosphate buffer pH 7.4 and test compound (final substrate concentration 1 μM; final DMSO concentration 0.25%) were pre-incubated at 37° C. prior to the addition of NADPH (final concentration 1 mM) to initiate the reaction. The final incubation volume was 50 μL. A control incubation was included for each compound tested where 0.1 M phosphate buffer pH 7.4 was added instead of NADPH (minus NADPH). Two control compounds were included with each species. All incubations were performed singularly for each test compound. Each compound was incubated for 0, 5, 15, 30 and 45 min. The control (minus NADPH) was incubated for 45 min only. The reactions were stopped by transferring incubate into acetonitrile at the appropriate time points, in a 1:3 ratio. The termination plates are centrifuged at 3,000 rpm for 20 min at 4° C. to precipitate the protein. Following protein precipitation, the sample supernatants were combined in cassettes of up to 4 compounds, internal standard added, and samples analysed by LC-MS/MS. From a plot of ln peak area ratio (compound peak area/internal standard peak area) against time, the gradient of the line was determined. Subsequently, half-life (t1/2) and intrinsic clearance (CLint) were calculated.

Data set [2] in a line: Liver microsomal stability, rat. In kind it is in vitro ADME. The following applies: pH 7.4; rat liver microsomes, 0.5 mg/mL protein, 1 μM compound, NADPH; >80% remaining at 45 min denoted >140; read-out: Liver Microsomal Stability: t1/2 (min); rat. The protocol:
as §1, §2

The nature of data set [3]: Liver microsomal stability, dog. The data set is classed as in vitro ADME. The following applies: pH 7.4; dog liver microsomes, 0.5 mg/mL protein, 1 μM compound, NADPH; >80% remaining at 45 min denoted >140; read-out: Liver Microsomal Stability: t1/2 (min); dog. The protocol:
as §1, §2

A further data set has as its system RSV A2. Briefly: RSV plaque reduction assay. The data set is classed as cell-based, respiratory syncytial virus (RSV). The following applies: human respiratory syncytial virus, HepG2; Hep-G2 cells, RSV A2, mean of at least two experiments. As to the method: Compounds were subjected to RSV plaque reduction assays according to the following protocol.
Hep-G2 cells (ECACC, 85011430) were passaged in flasks and seeded in 24-well plates in DMEM containing antibiotics and supplemented with 10% FBS. During inoculation and subsequent incubation, cells were cultured in DMEM containing 2% FBS. 100 plaque forming unit/well of RSV (RSV A2 ECACC, 0709161v) was mixed with eight serial dilutions of compound. Subsequently, 100 μL of the virus/compound mixtures was added to confluent Hep-G2 cell monolayers. The cells and virus/compound mixtures were incubated at 37° C. in a humidified 5% CO2 incubator for 2 h prior to removal of the inoculum and addition of 1 mL of overlay (DMEM containing 2% FBS and 0.8% CMC) containing compound dilutions. The cells and were incubated at 37° C. in a humidified 5% CO2 incubator for 2 days.
Cells were washed with PBS before adding 75/25% v/v EtOH/MeOH, for 3 min. Fixative was removed and plates were washed with PBS. A pre-titrated amount of the primary antibody was added in 200 μL PBS/2% milk powder, and plates incubated for 90 min at 37° C. The plates were washed 3 times with PBS/0.05% Tween20 before addition of rabbit anti-goat horse radish peroxidase in 200 μL PBS/2% milk powder, and incubated for 1 h at 37° C. Following three wash steps with PBS/0.05% Tween20, 200 μL ready-to-use TrueBlue was added and plates were incubated at rt for 10-15 min before washing with water. After removal of water, plates were air-dried in the dark.
Plates were scanned and analysed using the Immunospot S6 Macro analyser, which is equipped with BioSpot analysis software for counting immunostained plaques (virospots). Plaque counts were used to calculate % infection relative to the mean of the plaque count in the virus control wells for RSV. The EC50 value was calculated as 50% reduction in signal, respectively, by interpolation of inhibition curves fitted with a 4-parameter nonlinear regression with a variable slope in Dotmatics. Plaque EC50 and cell toxicity CC50 values are a mean of at least two experiments and figures are rounded to whole units.

Bounds are passed on as bounds.

Molecule `CCn1ncc(C(=O)N[C@H]2N=C(c3ccccc3)c3ccccc3NC2=O)c1-c1ccc(NC)nc1F` [Example 1, 1-Ethyl-5-[2-fluoro-6-(methylamino)pyridin-3-yl]-N-[(3S)-2-oxo-5-phenyl-1,3-dihydro-1,4-benzodiazepin-3-yl]pyrazole-4-carboxamide] returned a CC50 in the data set “Cell cytotoxicity CC50” above 25000 nM. Also, the results for the half-life in data set [1], in data set [2] and in data set [3] were 48.1 min, 24.4 min and 11.1 min, respectively. In the data set on RSV A2, this molecule had a concentration for a half-maximal effect (EC50) of 91 nM.

`CCNc1ccc(-c2c(C(=O)N[C@H]3N=C(c4ccccc4)c4ccccc4NC3=O)cnn2CC)c(F)n1` [Example 2, 1-Ethyl-5-[6-(ethylamino)-2-fluoropyridin-3-yl]-N-[(3S)-2-oxo-5-phenyl-1,3-dihydro-1,4-benzodiazepin-3-yl]pyrazole-4-carboxamide]: the CC50 in the data set “Cell cytotoxicity CC50” is above 25000 nM. Also, the half-life in data set [1] worked out at 44.4 min; in data set [2], 30.3 min; in data set [3], 23.9 min. For the same molecule, the response with RSV A2 was half-maximal at 88 nM (EC50).

In “Cell cytotoxicity CC50”, `CCn1ncc(C(=O)N[C@H]2N=C(c3ccccc3)c3ccccc3NC2=O)c1-c1ccc(NC2CCC2)nc1F` [Example 5, 5-[6-(Cyclobutylamino)-2-fluoropyridin-3-yl]-1-ethyl-N-[(3S)-2-oxo-5-phenyl-1,3-dihydro-1,4-benzodiazepin-3-yl]pyrazole-4-carboxamide] showed a CC50 above 25000 nM. In addition, the results for the half-life in data set [1], in data set [2] and in data set [3] were 50.1 min, 47.4 min and 45.7 min, respectively. Moreover, a half-maximal effect in the data set on RSV A2 (EC50) was put at 87 nM.

In “Cell cytotoxicity CC50”, `CCn1ncc(C(=O)N[C@H]2N=C(c3ccccc3)c3ccccc3NC2=O)c1-c1ccc(NC2(C)CC2)nc1F` [Example 6, 1-Ethyl-5-[2-fluoro-6-[(1-methylcyclopropyl)amino]pyridin-3-yl]-N-[(3S)-2-oxo-5-phenyl-1,3-dihydro-1,4-benzodiazepin-3-yl]pyrazole-4-carboxamide] displayed a CC50 above 25000 nM. For the same molecule, the results for the half-life in data set [1], in data set [2] and in data set [3] were 23 min, 31.5 min and 72.5 min, respectively. This molecule yielded an EC50 with RSV A2 of 32 nM.

`CCn1ncc(C(=O)N[C@H]2N=C(c3ccccc3)c3ccccc3NC2=O)c1-c1ncc(NC2CC2)cc1F` [Example 7, 5-[5-(Cyclopropylamino)-3-fluoropyridin-2-yl]-1-ethyl-N-[(3S)-2-oxo-5-phenyl-1,3-dihydro-1,4-benzodiazepin-3-yl]pyrazole-4-carboxamide] registered a half-maximal cytotoxic concentration (CC50) in “Cell cytotoxicity CC50” above 25000 nM. The values for the half-life in data set [1], in data set [2] and in data set [3] were 97 min, 595 min and 85.8 min, respectively. In the data set with RSV A2, this molecule displayed an EC50 of 69 nM.

Turning to `CCn1ncc(C(=O)N[C@H]2N=C(c3ccccc3)c3ccccc3NC2=O)c1-c1ncc(NC(C)C)cc1F` [Example 8, 1-Ethyl-5-[3-fluoro-5-(propan-2-ylamino)pyridin-2-yl]-N-[(3S)-2-oxo-5-phenyl-1,3-dihydro-1,4-benzodiazepin-3-yl]pyrazole-4-carboxamide], the CC50 in “Cell cytotoxicity CC50” was above 25000 nM. In addition, the results for the half-life in data set [1], in data set [2] and in data set [3] were 193 min, above 140 min and 104 min, respectively. Also, it took 32 nM to reach a half-maximal effect in the data set with RSV A2 (EC50).

The molecule `CCn1ncc(C(=O)N[C@H]2N=C(c3ccccc3)c3ccccc3NC2=O)c1-c1ccc(NC(C)C)cc1F` [Example 9, 1-Ethyl-5-[2-fluoro-4-(propan-2-ylamino)phenyl]-N-[(3S)-2-oxo-5-phenyl-1,3-dihydro-1,4-benzodiazepin-3-yl]pyrazole-4-carboxamide] had a 50% cytotoxic concentration (CC50) in “Cell cytotoxicity CC50” above 25000 nM. Moreover, the results for the half-life in data set [1], in data set [2] and in data set [3] were 220 min, 141 min and 89.1 min, respectively. In the data set with RSV A2, the EC50 amounted to 73 nM.

In turn, `CC(C)Nc1ccc(-c2c(C(=O)N[C@H]3N=C(c4ccccc4)c4cccc(F)c4NC3=O)cnn2C2COC2)c(F)n1` [Example 41, N-[(3S)-9-Fluoro-2-oxo-5-phenyl-1,3-dihydro-1,4-benzodiazepin-3-yl]-5-[2-fluoro-6-(propan-2-ylamino)pyridin-3-yl]-1-(oxetan-3-yl)pyrazole-4-carboxamide] had a CC50 in “Cell cytotoxicity CC50” above 25000 nM. In the data set with RSV A2, this molecule had an EC50 of 91 nM.

`CC(C)c1ccc(-c2c(C(=O)N[C@H]3N=C(c4ccccc4)c4cccc(F)c4NC3=O)cnn2C2CCOCC2)c(F)c1` [Example 45, 5-(2-Fluoro-4-propan-2-ylphenyl)-1-(oxan-4-yl)-N-[(3S)-9-fluoro-2-oxo-5-phenyl-1,3-dihydro-1,4-benzodiazepin-3-yl]pyrazole-4-carboxamide]: the CC50 in “Cell cytotoxicity CC50” is above 25000 nM. This molecule had an EC50 in the data set on RSV A2 of 38 nM.

`CCc1ccc(-c2c(C(=O)N[C@H]3N=C(c4ccccc4)c4ccccc4NC3=O)cnn2C2CCOCC2)c(F)c1` [Example 46, 5-(4-Ethyl-2-fluorophenyl)-1-(oxan-4-yl)-N-[(3S)-2-oxo-5-phenyl-1,3-dihydro-1,4-benzodiazepin-3-yl]pyrazole-4-carboxamide] came in with a CC50 in “Cell cytotoxicity CC50” above 25000 nM. In addition, in the data set with RSV A2, a half-maximal effect (EC50) was put at 34 nM.

In the data set “Cell cytotoxicity CC50”, `CCc1ccc(-c2c(C(=O)N[C@H]3N=C(c4ccccc4)c4ccccc4NC3=O)cnn2C2CCOCC2)c(F)n1` [Example 52, 5-(6-Ethyl-2-fluoropyridin-3-yl)-1-(oxan-4-yl)-N-[(3S)-2-oxo-5-phenyl-1,3-dihydro-1,4-benzodiazepin-3-yl]pyrazole-4-carboxamide] showed a CC50 above 25000 nM. In addition, in the data set on RSV A2, a half-maximal response (EC50) required 87 nM.

With `CCOc1nn(CC)c(-c2ccccc2F)c1C(=O)N[C@H]1N=C(c2ccccc2)c2ccccc2NC1=O` [Example 54, 3-Ethoxy-1-ethyl-5-(2-fluorophenyl)-N-[(3S)-2-oxo-5-phenyl-1,3-dihydro-1,4-benzodiazepin-3-yl]pyrazole-4-carboxamide], the CC50 in the data set “Cell cytotoxicity CC50” was above 25000 nM. In addition, the EC50 in the data set on RSV A2 was 51 nM.

In turn, `O=C(N[C@H]1N=C(c2ccccc2)c2cccc(F)c2NC1=O)c1cnn(C2CCOCC2)c1-c1ccc(NC2CC2)nc1` [Example 56, 5-[6-(Cyclopropylamino)pyridin-3-yl]-1-(oxan-4-yl)-N-[(3S)-9-fluoro-2-oxo-5-phenyl-1,3-dihydro-1,4-benzodiazepin-3-yl]pyrazole-4-carboxamide] displayed a CC50 in the data set “Cell cytotoxicity CC50” above 25000 nM. In the data set on RSV A2, this molecule came in with an EC50 of 78 nM.

In “Cell cytotoxicity CC50”, `CC(C)Nc1ccc(-c2c(C(=O)N[C@H]3N=C(c4ccccc4)c4cccc(F)c4NC3=O)cnn2C2CCOCC2)cn1` [Example 58, 1-(Oxan-4-yl)-5-[6-(propan-2-ylamino)pyridin-3-yl]-N-[(3S)-9-fluoro-2-oxo-5-phenyl-1,3-dihydro-1,4-benzodiazepin-3-yl]pyrazole-4-carboxamide] displayed a CC50 above 25000 nM. The same molecule registered an EC50 in the data set with RSV A2 of 99 nM.

In turn, `CCc1ccc(-c2c(C(=O)N[C@H]3N=C(c4ccccc4)c4cccc(F)c4NC3=O)cnn2C2CCN(C)CC2)c(F)c1` [Example 59, 5-(4-Ethyl-2-fluorophenyl)-1-(1-methylpiperidin-4-yl)-N-[(3S)-9-fluoro-2-oxo-5-phenyl-1,3-dihydro-1,4-benzodiazepin-3-yl]pyrazole-4-carboxamide] showed a CC50 in “Cell cytotoxicity CC50” of 15200 nM. The molecule further gave an EC50 with RSV A2 of 107 nM.
